The source of these data is PubChem BioAssay AID2060513 (Molecular Pharmacology Branch, DTP, NCI, 2025).

In the assay the test system is 299254-011-R-J1-PDC complex spheroids viability. The experiment in a line: Anticancer human tumor 299254-011-R-J1-PDC patient-derived melanoma cell line growth inhibition [GQUAD]. Conditions: for viability, T/C: stronger effect = lower value. From the text: DNA G-quadruplex Stabilizer Agents in Combinations in Complex Spheroids
A high-throughput screen of multi-cell type tumor spheroids was designed to identify active combinations of DNA G-quadruplex stabilizer agents and targeted small molecules. Complex spheroids include a stromal component modeled by human endothelial cells (HUVEC) and fibroblasts modeled by human mesenchymal stem cells (MSCs). The concentration ranges selected for each drug and investigational agent were based upon clinically achievable concentrations if the clinical Cmax of the agent was known.
Compounds. The drugs and investigational agents: pidnarulex (CX-5461; NSC782164), APTO-253 (NSC789042), BRACO-19 (NSC847499), peposertib (NSC802822), ceralasertib (NSC780249), elimusertib (NSC800525), camonsertib (NSC841442), AZD-1390 (NSC803789), olaparib (NSC753686), talazoparib (NSC767125), ART-558 (NSC835418), sotorasib (NSC818433), MRTX-1133 (NSC836407), SN-38 (NSC673596), topotecan (NSC609699), etoposide (NSC141540), doxorubicin (NSC123127), gemcitabine (NSC613327), 5-fluorouracil (NSC19893), paclitaxel (NSC125973), vemurafenib (NSC761431), panobinostat (NSC761190), R-306465 (JNJ-16241199; NSC773264), adavosertib (NSC754352), TP-3654 (NSC805149), carboplatin (NSC241240), KSQ-4279 (NSC840948), and staurosporine (NSC755774) were obtained from the National Cancer Institute (NCI) Developmental Therapeutics Program Chemical Repository (34). The FDA-approved anticancer drug set is available from the NCI Developmental Therapeutics Program. […] The stock solutions were prepared in dimethyl sulfoxide (DMSO, Sigma-Aldrich, St. Louis, MO, cat. D2650) at 800-fold the tested concentration and stored at -70 degrees C prior to their use. All drugs and investigational agents were tested over a range starting from a high concentration at or near the clinical Cmax and decreasing in half-log increments. If the clinical Cmax for an agent had not been determined, the highest concentration tested was 10 microM.
2.3 Cell Culture. All cells were maintained in an incubator at 37 degrees C and 5% CO2 with 95% humidity. The PDC lines were cultured according to standard operating procedures established by the NCI PDMR. All PDCs were thawed and cultured in Matrigel-coated flasks prepared with a working solution of 1X Ham's F-12 nutrient mix, without supplementation (Invitrogen, cat. 11765054), 100 U/mL penicillin-streptomycin (Invitrogen, cat. 15140122), and 2.5% Matrigel (Corning Inc., cat. 354248) for the first three passages. The 857933-349-R-J2-PDC line was cultured in 6C/Colon 1B media, which includes advanced DMEM/F-12 (Thermo Fisher Scientific, cat. 12634028), 10 mM HEPES (Thermo Fisher Scientific, cat. 15630080), 1X GlutaMAX supplement (Thermo Fisher Scientific, cat. 35050061), 0.1 mg/mL primocin (InvivoGen, cat. ant-pm-2), 10% defined fetal bovine serum, heat inactivated (HyClone Laboratories Inc., cat. SH30070.03HI), 50% L-WRN conditioned media (ATCC, cat. CRL-3276), 1.25 mM N-Acetyl-L-cysteine (Sigma-Aldrich, cat. A9165), 10 mM nicotinamide (Sigma-Aldrich, cat. N0636), 1X B-27 supplement (Thermo Fisher Scientific, cat. 17504044), 1X N-2 supplement (Thermo Fisher Scientific, cat. 17502048), 10 microM Y-27632 dihydrochloride (Tocris Bioscience, cat. 1254), and 50 ng/mL human EGF recombinant protein (Thermo Fisher Scientific, cat. PHG0311). The 485176-168-R4-J1-PDC line was cultured in Panc media, which includes all 6C/Colon 1B media components plus 100 ng/mL human FGF-10 (Thermo Fisher Scientific, cat. 100-26), 500 nM SB-431542 (Selleckchem, cat. S1067), and gastrin (Tocris, cat. 3006).
[…]

Several values for one entry are separate records, joined by “and”; a condition that tells them apart may be missing. Equal values may be shown once.

One may read the viability, T/C as the result in the treated group divided by that in the control group, in per cent. In general, IC50 refers to the concentration needed to halve the response being measured.
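Note: spheroids exposed to the agents for seven days before readout.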
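Throughout, for viability, T/C: percent viability relative to DMSO vehicle control wells = 100%.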

Regarding `C#Cc1c(F)ccc2cc(O)cc(-c3ncc4c(N5CC6CCC(C5)N6)nc(OCC56CCCN5CC(F)C6)nc4c3F)c12` (stereo not given), the viability, T/C is 117% and 84.2% and 84% (compound 0.0316 µM); 109% and 86.1% and 98.1% (compound 0.1 µM); 90.8% and 85.1% and 95.8% (compound 0.316 µM); 118% and 83.9% and 81% (compound 1 µM); 86.5% and 93.7% and 84.6% (compound 3.16 µM); 82.7% and 72.7% and 67.4% (compound 10 µM). Further, the IC50 (curve of compound) was more than 10000 nM.

With `C=CC(=O)N1CCN(c2nc(=O)n(-c3c(C)ccnc3C(C)C)c3nc(-c4c(O)cccc4F)c(F)cc23)C(C)C1` (stereo not given), the viability, T/C is, setting by setting: (compound 0.0316 µM) 79% and 95.8% and 88.2%; (compound 0.1 µM) 57.3% and 82.7% and 63.5%; (compound 0.316 µM) 81% and 65.1% and 59%; (compound 1 µM) 59.5% and 59.8% and 59%; (compound 3.16 µM) 60.7% and 61% and 69.7%; (compound 10 µM) 68.5% and 69.6% and 66.1%. The IC50 (curve of compound) is more than 10000 nM.

With `CC(=O)O[C@H]1C(=O)[C@@]2(C)[C@H]([C@H](OC(=O)c3ccccc3)[C@]3(O)C[C@H](OC(=O)[C@H](O)[C@@H](NC(=O)c4ccccc4)c4ccccc4)C(C)=C1C3(C)C)[C@]1(OC(C)=O)CO[C@@H]1C[C@@H]2O`, the viability, T/C is, setting by setting: (compound 0.0316 µM) 102% and 92% and 92.4%; (compound 0.1 µM) 86.3% and 73.8% and 59%; (compound 0.316 µM) 60.6% and 55.7% and 63.9%; (compound 1 µM) 32% and 37.8% and 26.7%; (compound 3.16 µM) 18.9% and 18.2% and 24.1%; (compound 10 µM) 12% and 17.6% and 19.5%. Besides, for the setting “curve of compound”, the IC50 was 483 nM and 423 nM and 306 nM.

On to `CC(C)n1c(=O)n(C)c2cnc3cc(F)c(-c4ccc(OCCCN5CCCCC5)nc4)cc3c21`, for which the viability, T/C (compound 0.0316 µM) is 104% and 100% and 97%; the viability, T/C (compound 0.1 µM) was 87.8% and 78.1% and 79%; the viability, T/C (compound 0.316 µM) was 102% and 101% and 90.2%; the viability, T/C (compound 1 µM) was 104% and 76.4% and 83.5%; the viability, T/C (compound 3.16 µM) is 93% and 75% and 78.9%; the viability, T/C (compound 10 µM) is 55.8% and 48.2% and 48.6%. In addition, the IC50 (curve of compound) is > 10000 nM and 9520 nM and 9660 nM.

With `CC1COCCN1c1cc(-c2ccnn2C)c2ccnc(-c3ccn[nH]3)c2n1` (stereo not given), the viability, T/C by setting is: (compound 0.0316 µM) 91.4% and 103% and 81.2%; (compound 0.1 µM) 51.7% and 66.5% and 56.5%; (compound 0.316 µM) 36.6% and 36.5% and 32.7%; (compound 1 µM) 17.9% and 19.7% and 18.7%; (compound 3.16 µM) 22.7% and 13.6% and 13.7%; (compound 10 µM) 11.9% and 15.1% and 13.6%. Further, the IC50 (curve of compound) is 122 nM and 186 nM and 137 nM.

With `CC1COCCN1c1cc(C2(O)CC3CCC(C2)O3)c2cnn(-c3ccn[nH]3)c2n1` (stereo not given), the viability, T/C runs as follows: (compound 0.0316 µM) 116% and 87.6% and 93.3%; (compound 0.1 µM) 42.7% and 48.7% and 67.2%; (compound 0.316 µM) 23.7% and 29.9% and 29.5%; (compound 1 µM) 12.7% and 12.4% and 18.8%; (compound 3.16 µM) 10.2% and 10.5% and 10.9%; (compound 10 µM) 4.19% and 8.01% and 5.02%. Besides, the IC50 (curve of compound) was 92.6 nM and 99.2 nM and 173 nM.

`CC1COCCN1c1cc(C2(S(C)(=N)=O)CC2)nc(-c2ccnc3[nH]ccc23)n1` (stereo not given): the viability, T/C runs as follows: (compound 0.0316 µM) 98.9% (2×) and 94.3%; (compound 0.1 µM) 100% and 103% and 80.5%; (compound 0.316 µM) 79.7% and 97% and 97.8%; (compound 1 µM) 68% and 100% and 61%; (compound 3.16 µM) 67.9% and 60.8% and 37.7%; (compound 10 µM) 28.7% and 29.5% and 16.5%. Moreover, for the setting “curve of compound”, the IC50 is 4410 nM and 4700 nM and 1810 nM.

With `CCCS(=O)(=O)Nc1ccc(F)c(C(=O)c2c[nH]c3ncc(-c4ccc(Cl)cc4)cc23)c1F`, the viability, T/C reads like this: (compound 0.0316 µM) 130% and 120% and 109%; (compound 0.1 µM) 101% and 98.5% and 102%; (compound 0.316 µM) 92.2% and 107% and 95.9%; (compound 1 µM) 107% and 104% and 112%; (compound 3.16 µM) 80.6% and 104% and 103%; (compound 10 µM) 39.9% and 45.2% and 46.6%. Moreover, the IC50 (curve of compound) is 7690 nM and 9110 nM and 9320 nM.

For `CC[C@@]1(O)C(=O)OCc2c1cc1n(c2=O)Cc2cc3c(CN(C)C)c(O)ccc3nc2-1`, the viability, T/C is, setting by setting: (compound 0.000999 µM) 91.8% and 98.4% and 103%; (compound 0.00316 µM) 94% and 117% and 106%; (compound 0.00999 µM) 93.8% and 93.5% and 91.8%; (compound 0.0316 µM) 85.7% and 102% and 117%; (compound 0.0999 µM) 80.3% and 103% and 96.4%; (compound 0.316 µM) 97.9% and 88% and 91.1%. Also, the IC50 (curve of compound) was more than 316 nM.

On to `CCc1c2c(nc3ccc(O)cc13)-c1cc3c(c(=O)n1C2)COC(=O)[C@]3(O)CC`, for which the viability, T/C (compound 0.000999 µM) was 94.3% and 102% and 120%; the viability, T/C (compound 0.00316 µM) is 83.9% and 104% and 97.4%; the viability, T/C (compound 0.00999 µM) was 87.7% and 72.2% and 92.2%; the viability, T/C (compound 0.0316 µM) is 64.8% and 104% and 70.9%; the viability, T/C (compound 0.0999 µM) is 80% and 86.2% and 77.4%; the viability, T/C (compound 0.316 µM) is 89.8% and 84.2% and 73.6%. Further, the IC50 (curve of compound) was more than 316 nM.

`CN(C)c1ccc(Nc2c3ccc(NC(=O)CCN4CCCC4)cc3nc3cc(NC(=O)CCN4CCCC4)ccc23)cc1`: the viability, T/C by setting is: (compound 0.0316 µM) 95.2% [middle of 12 runs]; (compound 0.316 µM) 95.5% [middle of 12 runs]; (compound 3.16 µM) 106% [middle of 12 runs]; (compound 10 µM) 98.3% [middle of 12 runs]. Moreover, the IC50 (compound alone, run of 02/26/2024) is more than 10000 nM.
